Consider four molecules from ChEMBL document CHEMBL1132455, “Retention of immunosuppressant activity in an ascomycin analogue lacking a hydrogen-bonding interaction with FKBP12” (J Med Chem, 1999).

For one experiment, the system named is Rattus norvegicus. Briefly: The compound was tested in vivo for lympho-proliferation,against popliteal lymph node(inbred male rats) after i.p. administration. It counts as functional. The conditions noted are these: ip.
The species entered for experiment [1] is Homo sapiens. Briefly: Immunosuppressive activity examined in an in vitro model of allogenic T-lymphocyte activation (by MLR assay). It is filed as functional.
The target in experiment [2] is Peptidyl-prolyl cis-trans isomerase FKBP1A (Homo sapiens, UniProt P62942). In words: The compound was tested for binding affinity against human FK506 binding protein 12.
The species named for experiment [3] is Homo sapiens. In words: Immunosuppressive activity examined in an in vitro model of allogenic T-lymphocyte activation(by MLR assay). It counts as functional.

The structures appear in SMILES notation.

Chain of Peptidyl-prolyl cis-trans isomerase FKBP1A (P62942 whole entry): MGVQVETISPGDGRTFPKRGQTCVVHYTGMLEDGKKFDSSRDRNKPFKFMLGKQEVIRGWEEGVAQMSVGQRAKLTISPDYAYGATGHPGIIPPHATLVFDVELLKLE

By ED50 is commonly meant the dose that gives a 50% effect, or the effect in half of the subjects. Higher therefore signals weaker potency. The IC50 is the point on the concentration scale where inhibition reaches its midpoint. With `CC[C@@H]1/C=C(\C)C[C@H](C)C[C@H](OC)[C@H]2O[C@@](O)(C(=O)C(=O)N3CCCC[C@H]3C(=O)O[C@H](/C(C)=C/[C@@H]3CC[C@@H](O)[C@H](OC)C3)[C@H](C)[C@@H](O)CC1=O)[C@H](C)C[C@@H]2OC` [ASCOMYCIN], the ED50 with Rattus norvegicus turned out to be 0.32 mg/kg/day. The molecule also returned an IC50 in the experiment listed under Homo sapiens [1] of 0.26 nM.
Take `CC[C@@H]1/C=C(\C)C[C@H](C)C[C@H](OC)[C@H]2O[C@@](O)(C(=O)C(=O)N3CCCC[C@H]3C(=O)O[C@H](/C(C)=C/[C@@H]3CC[C@@H](O)[C@H](OC)C3)[C@H](C)CCC1=O)[C@H](C)C[C@@H]2OC`: in the experiment with Rattus norvegicus, the 50% effective dose (ED50) came out at 0.65 mg/kg/day. Besides, the half-maximal inhibitory concentration (IC50) amounted to 0.15 nM in the experiment listed under Homo sapiens [1] and 0.77 nM in experiment [2].
Consider `CC[C@@H]1/C=C(\C)C[C@H](C)C[C@H](OC)[C@H]2O[C@@](O)(C(=O)C(=O)N3CCCC[C@H]3C(=O)O[C@H](/C(C)=C/[C@@H]3CC[C@@H](O)[C@H](OC)C3)[C@H](C)/C=C/C1=O)[C@H](C)C[C@@H]2OC`, for which the figures for the IC50 (in the experiment listed under Homo sapiens [3]; in experiment [2]) were 22 nM and 529 nM, respectively.
Take `C=CC[C@@H]1/C=C(\C)C[C@H](C)C[C@H](OC)[C@H]2O[C@@](O)(C(=O)C(=O)N3CCCC[C@H]3C(=O)O[C@H](/C(C)=C/[C@@H]3CC[C@@H](O)[C@H](OC)C3)[C@H](C)[C@@H](O)CC1=O)[C@H](C)C[C@@H]2OC` [TACROLIMUS ANHYDROUS]: in the experiment with Rattus norvegicus, it took a dose of 0.15 mg/kg/day to reach the 50% effect level (ED50). Moreover, the 50% inhibitory concentration (IC50) in the experiment filed under Homo sapiens [1] is 0.23 nM.
